# From patent US7173063B1, “Topoisomerase poisons for the treatment of proliferative disorders” (Fred Hutchinson Cancer Research Center, priority 2000, dated 2007)
# Biological target: T1, Topo II (Saccharomyces cerevisiae, UniProt P06786)
# T1 construct: Strains are wild-type (wt) or constitutively overexpressing Topo II (TOP2oe); endogenous in cells; host or cells: S. cerevisiae A364a background, chromosomal TOP2 with its promoter replaced by the GPD promoter (TOP2oe)
# T1 sequence (P06786 1-1428): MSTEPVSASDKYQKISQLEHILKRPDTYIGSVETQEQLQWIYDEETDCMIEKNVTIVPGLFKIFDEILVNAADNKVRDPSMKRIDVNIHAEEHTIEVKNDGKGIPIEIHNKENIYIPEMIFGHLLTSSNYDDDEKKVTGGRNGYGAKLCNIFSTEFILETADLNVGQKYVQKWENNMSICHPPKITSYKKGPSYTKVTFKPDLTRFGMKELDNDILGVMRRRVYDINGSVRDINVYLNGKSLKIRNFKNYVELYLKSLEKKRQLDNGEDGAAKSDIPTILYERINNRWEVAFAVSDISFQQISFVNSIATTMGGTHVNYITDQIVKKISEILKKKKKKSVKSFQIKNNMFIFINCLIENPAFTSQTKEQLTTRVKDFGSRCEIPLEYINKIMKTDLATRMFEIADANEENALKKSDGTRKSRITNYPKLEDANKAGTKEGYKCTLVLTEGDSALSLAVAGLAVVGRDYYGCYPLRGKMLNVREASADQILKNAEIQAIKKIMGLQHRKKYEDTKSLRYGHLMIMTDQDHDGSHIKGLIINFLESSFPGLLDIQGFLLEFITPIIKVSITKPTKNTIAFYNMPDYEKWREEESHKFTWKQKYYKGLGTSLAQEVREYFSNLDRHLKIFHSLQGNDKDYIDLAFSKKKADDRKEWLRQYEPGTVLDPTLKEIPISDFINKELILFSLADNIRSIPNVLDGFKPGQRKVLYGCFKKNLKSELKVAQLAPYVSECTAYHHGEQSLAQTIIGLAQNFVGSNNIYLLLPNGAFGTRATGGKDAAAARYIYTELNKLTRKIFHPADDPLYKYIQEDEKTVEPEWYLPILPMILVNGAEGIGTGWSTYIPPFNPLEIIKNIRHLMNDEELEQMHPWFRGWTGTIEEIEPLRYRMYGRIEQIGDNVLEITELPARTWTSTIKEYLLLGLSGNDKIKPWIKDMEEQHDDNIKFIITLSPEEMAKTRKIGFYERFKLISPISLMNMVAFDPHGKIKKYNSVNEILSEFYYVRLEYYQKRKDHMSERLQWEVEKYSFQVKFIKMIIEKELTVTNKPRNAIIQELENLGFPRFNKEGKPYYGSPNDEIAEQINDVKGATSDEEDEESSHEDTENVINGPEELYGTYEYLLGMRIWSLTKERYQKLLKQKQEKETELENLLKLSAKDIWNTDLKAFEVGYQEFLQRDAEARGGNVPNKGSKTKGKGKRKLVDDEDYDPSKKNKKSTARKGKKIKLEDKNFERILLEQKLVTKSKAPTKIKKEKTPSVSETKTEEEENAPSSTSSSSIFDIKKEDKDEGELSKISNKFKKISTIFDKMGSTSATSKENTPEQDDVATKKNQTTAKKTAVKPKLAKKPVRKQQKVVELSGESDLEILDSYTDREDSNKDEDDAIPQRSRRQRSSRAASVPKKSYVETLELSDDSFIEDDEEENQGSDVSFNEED
# Experiment: Yeast toxicity in strain overexpressing Topo II (TOP2oe)
# Type: cell-based
# Settings: TOP2oe vs wild-type strain
# From the text: The strains are derived from the A364a genetic background, with the exception of BY4705, which is derived from the S288C background. Gene disruptions were generated by PCR fragment directed replacement (Baudin, et al., Nucleic Acids Research 21: 3329–30 (1993), Guldener, et al., Nucleic Acids Research 24: 2519–24 (1996)). Yeast overexpressing topoisomerase II was constructed by a PCR fragment directed promoter replacement of the topoisomerase II promoter with the yeast GPD promoter flanked upstream by the URA3 marker. All strains (except BY4705) bear the pleitropic drug sensitizing mutations erg6, pdr1, and pdr3 (Balzi, et al., Journal of Bioenergetics & Biomembranes 27: 71–6 (1995), Delaveau, et al, Molecular & General Genetics 244: 501–11 (1994), Gaber, et al., Molecular & Cellular Biology 9: 3447–56 (1989), Saunders, et al., Canadian Journal of Genetics & Cytology, 24: 493–503 (1982). Subik, et al, Current Genetics 10: 665–70 (1986)). The haploid yeast strain BY4705 (Brachmann, et al., Yeast 14: 115–32 (1998)) was used in the experiments described in FIG. 5. Plasmids expressing yeast or human topoisomerase I genes under the GAL promoter (Knab, et al., Journal of Biological Chemistry 268: 22322–30 (1993). Knab, et al., Journal of Biological Chemistry 270: 6141–8 (1995)) were transformed into BY4705 using standard procedures.
# Yeast toxicity assays were performed essentially as follows: Exponentially growing cultures of the appropriate strains were diluted in synthetic complete media to a concentration of 7.4×10^4 cells/mL, and aliquots (135 μL) were transferred to each well of clear flat-bottomed 96 well plates. Compounds were added in duplicate or triplicate as 15 μL of the appropriate dilution in 5% DMSO. A 15 μL portion of 5% DMSO was added to control wells. Assay plates were incubated at 30° C. for approximately seven generations growth in solvent control wells (as monitored by OD660, typically 21–24 hours), then the OD660 of the cultures was measured in a microplate reader (Bio-Tek). […]
row,SMILES,effect of overexpression of Topo II on toxicity
1,"CC(=O)[C@]1(O)Cc2c(O)c3c(c(O)c2[C@@H](O[C@H]2C[C@H](N)[C@H](O)[C@H](C)O2)C1)C(=O)c1ccccc1C3=O [idarubicin, reference compound]",large increase
2,O=c1c(Cl)c(Cl)cnn1CCCl [compound IIa],Neither compound shows a large increase in toxicity
3,O=C(CCl)Nc1ccc(C(=O)N/N=C/c2ccc(Cl)cc2)cc1 [compound Ia],Neither compound shows a large increase in toxicity
